Assay results as given in US5256528A, “Magenta image-dye couplers of improved hue” (Eastman Kodak Company, priority 1992, dated 1993).

How the values were obtained:
[1] = Unwanted blue light absorption of magenta dye in film (absorption spectra, FIGURE); assay type: physicochemical; settings: relative to dye derived from comparative coupler B5
Method: (§1) The dispersions were coated at 1.04 mmole/sq m together with a silver bromoiodide emulsion on a transparent acetate support in the format shown below. Hardened film strips were exposed through a 0-4 neutral density stepwedge and daylight V and WRATTEN 9 filters and subjected to a standard C-41 process at 37.8° C. The process consists of 2.5 min in color developer, 4 min in a ferric EDTA/PDTA bleach solution, 2 min wash, 4 min fix and 2 min final wash. Photographic gamma values were obtained from the slopes of plots of status M green density vs. exposure for processed samples. Absorption spectra of the dye-containing processed films were measured at a density near 1.0 on a spectrophotometer and the wavelengths of maximum absorption (λ max values) were recorded.
Dispersions of the comparative couplers B4, B5 and B8 and the couplers of this invention M6-M11 were prepared and coated as in Example 2. The coupler solvent S1 was again used at a 1:0.5 coupler:S1 weight ratio. Film strips of the hardened coatings were exposed, processed and analyzed as in Example 2. Couplers B4 and M6-M8 have a strongly electron-withdrawing alkoxycarbonyl substituent in the R2 position and couplers B5 and M9-M11 have a strongly electron-withdrawing alkylsulfonyl group at R2. […]

[2] = Absorption spectra of dye-containing processed films (λmax), C-41 process; assay type: physicochemical; settings: coupler:S1 1:0.5
Method: (§2) Dispersions of the comparative couplers B1-B3 and B8 and of the couplers of this invention M1-M3 were prepared by dissolving the coupler in the coupler solvent S1 plus the auxiliary solvent 2-(2-butoxyethoxy)ethyl acetate and then dispersing this oil phase in an aqueous solution of gelatin and surfactant using an ultrasonic probe. The dispersions were chilled and washed for 6 hr at 4° C. to remove the auxiliary solvent. The dispersions contained approximately 8.8% coupler, 4.4% S1 and 6% gelatin by weight.
as §1
(§3) BVSM* Hardener 0.06 g/sq m
(§4) Coupler Solvent S1 1/2 coupler laydown
(§5) Dispersions of couplers B3, M1 and M5 with S1 (1:0.5) were prepared and coated as in Example 2. Film strips of these coatings were exposed, processed and analyzed as in Example 2. λmax values and gamma values associated with these film compositions are listed in Table III. This series further illustrates the use of electron-withdrawing substituents to obtain magenta dyes of the proper hue.
(§6) Dispersions of the comparative couplers B4, B5 and B8 and the couplers of this invention M6-M11 were prepared and coated as in Example 2. The coupler solvent S1 was again used at a 1:0.5 coupler:S1 weight ratio. Film strips of the hardened coatings were exposed, processed and analyzed as in Example 2. Couplers B4 and M6-M8 have a strongly electron-withdrawing alkoxycarbonyl substituent in the R2 position and couplers B5 and M9-M11 have a strongly electron-withdrawing alkylsulfonyl group at R2. […] The couplers of this invention, M6-M11, which have strong electron-withdrawing groups in each ring, yield dyes having the desired bathochromic hues, as shown by the λmax values. The gamma values obtained with the couplers of this invention are suitably high to be useful in photographic materials, as indicated by comparison to the gamma obtained from the commercial coupler B8.
(§7) Dispersions of the comparison couplers B6 and B7, and of the couplers of this invention M12-M17, were prepared using the coupler solvent Sl as in Example 2. These were coated as in Example 2, and hardened film strips were exposed, processed and analyzed as in Example 2. The results obtained are summarized in Table V. In this example all of the couplers have sulfamoyl or alkylsulfonyl substituents in the R1 position and the R2 substituent on the 3-anilino ring is varied. Comparative couplers B6 and B7 have chloro substituents at R2, whereas M12-M17 of this invention have strong electron withdrawing R2 groups. […] The gamma values of the couplers of this invention are similar to those of the comparative couplers.

[3] = Photographic gamma (slope of status M green density vs. exposure), C-41 process; settings: coupler:S1 1:0.5
Method: as §2, §1, §3, §4, §5, §6, §7

[4] = λmax with coupler solvents and addenda (KODAK FLEXICOLOR C-41 variants); assay type: physicochemical; settings: Table VI
Method: (§8) Dispersions of the coupler B3 were prepared with coupler solvents S1 and C2, both at a 1:1 B3:coupler solvent weight ratio. Dispersions of coupler M1 were prepared with C2 at 1:1 and with C2 plus aniline A1 at a 1:0.8:0.2 M1:C2:A1 weight ratio. These dispersions were prepared by dissolving the coupler in a mixture of coupler solvent, aniline A1 (optional) and cyclohexanone. The coupler:cyclohexanone weight ratio was 1:3. This mixture was then added to an aqueous solution of gelatin and ALKANOL XC surfactant. The two-phase mixture was then passed through a colloid mill to disperse the coupler-containing oil phase in the aqueous phase in the form of small droplets. The dispersion was then chilled, noodled and washed to remove the auxiliary cyclohexanone solvent. The resulting dispersions contained approximately 2% by weight of coupler and 6% by weight of gelatin.
(§9) The dispersions were then coated on a transparent support together with a silver bromoiodide emulsion in the format shown below. Coatings were then exposed through a stepwedge and subjected to variants of the KODAK FLEXICOLOR (C-41) process described below. One set of film samples was processed with an acetic acid stop bath between the development and bleach steps (process A). A second set of films was processed without a stop bath and with the bleach pH adjusted to 6.0 instead of the normal 5.25 (process B). This is intended to simulate behavior in a "seasoned" bleach whose pH increases due to carry-over of base from the developer solution. The difference between Dmin values (densities obtained in unexposed portions of the films) between process A and process B are due to continued coupling between coupler and developer carried over into the bleach. Both the lack of a stop bath and the high bleach pH in process B aggravate continued coupling. It is desirable to minimize Dmin density and Dmin variability due to continued coupling. Since conditions similar to process B are encountered in simplified trade processing, it is desirable to minimize continued coupling, as measured by the delta Dmin of process B - process A. These delta Dmin values are listed in Table VI along with λmax values and gamma values (obtained from plots of status M green density versus exposure).
(§10) 2.6 g/sq m Gelatin + 1.75 weight % BVSME* Hardener
(§11) Coupler Solvent + or - A1 @ equal weight to coupler
(§12) 1.08 g/sq m Silver Emulsion
(§13) //////Cellulose Acetate Butyrate Support//////
(§14) Also included in this comparison was a 1:1 dispersion of M1 plus C2 to which was added the DIR coupler D1 (shown above) at a M1:D1 weight ratio of 1:0.045.

[5] = Formaldehyde exposure test (loss of dye density obtainable on processing); settings: Table II, Example 3; 48 hr formaldehyde exposure, 60% RH; relative to water-glycerol only
Source text: Prior examples of 3-anilino-1-phenyl-5-pyrazolone couplers that yield bathochromic dyes have been limited to four-equivalent couplers or to couplers with coupling-off groups other than arylthio or alkylthio groups. The four-equivalent couplers are not suitable for the practice of this invention because of their high propensity to react with formaldehyde or other hardeners. This can be illustrated by exposing coupler-containing films to formaldehyde and noting the changes in the dye density obtainable upon photographic processing. To obtain the data in Table II one set of film strips was suspended in a light-tight tank over a beaker containing 10 g of formaldehyde, and a solution of 14 g of water and 36 g of glycerol (60% RH) for 48 hr. A second set of strips was suspended for 48 hr over a water-glycerol solution without the beaker of formaldehyde. The strips were then exposed through a stepwedge, process (C-41) and the densities were measured. Values of the percent reduction in (Dmax-Dmin) for the samples exposed to formaldehyde relative to the samples exposed to water-glycerol only were determined.
Coatings of B8,B9 and M1 prepared as described in Example 2 were subjected to the formaldehyde test.

[6] = Photographic gamma with coupler solvents and addenda (KODAK FLEXICOLOR C-41 variants); settings: Table VI; C2(0.8), aniline A1(0.2), no DIR coupler
Method: as §8
as §9, with “Both the lack of a stop bath and the high bleach pH in process B aggravate continued coupling. It is desirable to minimize Dmin density and Dmin variability due to continued coupling.” left out, “exposure). […]” for “exposure).”

[7] = Continued coupling in bleach, delta Dmin process B - process A; settings: Table VI
Method: as §8, §9, §10, §11, §12, §13
or Standard C-41 Bleach II
2B Bleach II Adjusted to pH = 6.0
as §14

[8] = C2(0.8), aniline A1(0.2), no DIR coupler
[9] = C2(1.0), no aniline, DIR coupler D1(0.045)
[10] = C2(1.0), no aniline, no DIR coupler

Row | SMILES | unwanted blue light absorption at 480 nm [1] | λmax(nm) (+-0.5) ([2]; Table IV, Example 5) | Gamma ([3]; Table IV, Example 5) | λmax(nm) [4, 8] | λmax(nm) [4, 9] | λmax(nm) [4, 10] | % Density Loss after Formaldehyde Exposure [5] | λmax(nm) (+-0.5) ([2]; Table I, Example 2) | Gamma ([3]; Table III, Example 4) | Gamma [6] | Delta Dmin Process B-A [7, 8] | Delta Dmin Process B-A [7, 9] | Delta Dmin Process B-A [7, 10]
1 | CCCCCCCCCCCCS(=O)(=O)c1ccc(NC2=NN(c3c(Cl)cc(C#N)cc3Cl)C(=O)C2Sc2cc(C(C)(C)CC(C)(C)C)ccc2OCCCC)c(Cl)c1 (stereo not shown) [Coupler M11] | less unwanted blue light absorption at 480 nm | 551.0 nm | 3.3 |  |  |  |  |  |  |  |  |  | 
2 | CCCCCCCCCCCCNS(=O)(=O)c1ccc(NC2=NN(c3c(Cl)cc(S(=O)(=O)N4CCOCC4)cc3Cl)C(=O)C2Sc2cc(C(C)(C)CC(C)(C)C)ccc2OCCCC)c(Cl)c1 (stereo not shown) [Coupler M1] |  |  |  | 549 nm | 549 nm | 549 nm | 3% | 550.5 nm | 4.4 | 1.83 | 0.040 | 0.088 | 0.073
